According to the supplement of paper PMC12819154, “High-throughput peptide-centric local stability assay extends protein–ligand identification to membrane proteins, tissues and bacteria” (Nature Structural & Molecular Biology, 2025):

Legend:
Assay in all cases: pEC50 of peptide local stability change
[1] = target: UniProt P76422; conditions: peptide sequence: GGHLDDEQSPDWLFTR; direction: stabilized; replicate design: treated separately
Experimental: (§1)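 Dose-response HT-PELSA: desalted E. coli lysate treated separately per replicate with ATP (10 uM to 10 mM, 7 doses) for 30 min at 25 C, then a 4 min trypsin pulse at 22 C. Peptide ratio vs control was fitted with a 4-parameter log-logistic model (R2 > 0.9 in at least 3 replicates, CV of pEC50 <= 0.25); value is the mean pEC50 across replicates for stabilized or destabilized peptides.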

[2] = target: UniProt Q47129; conditions: peptide sequence: LSTVTTSGVNLSR; direction: stabilized; replicate design: treated separately
Chain of UniProt Q47129 (Q47129 whole entry): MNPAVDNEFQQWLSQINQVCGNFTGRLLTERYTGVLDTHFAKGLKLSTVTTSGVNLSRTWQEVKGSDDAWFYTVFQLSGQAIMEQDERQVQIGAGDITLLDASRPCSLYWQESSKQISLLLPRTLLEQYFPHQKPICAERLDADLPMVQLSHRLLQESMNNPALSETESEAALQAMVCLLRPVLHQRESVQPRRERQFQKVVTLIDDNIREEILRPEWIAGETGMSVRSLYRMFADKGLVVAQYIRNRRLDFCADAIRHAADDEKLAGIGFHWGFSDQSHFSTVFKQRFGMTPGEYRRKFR
Experimental: as §1

[3] = target: UniProt P33940; conditions: peptide sequence: EYYPQAK; direction: stabilized; replicate design: treated separately
Experimental: as §1

[4] = target: UniProt P37760; conditions: peptide sequence: TGQVGWELQR; direction: stabilized; replicate design: treated separately
Experimental: as §1

[5] = target: UniProt P08192; conditions: peptide sequence: ASGLEVSENAIR; direction: stabilized; replicate design: treated separately
Experimental: as §1

[6] = target: UniProt P33593; conditions: peptide sequence: LADDVAVMSDGK; direction: stabilized; replicate design: treated separately
Experimental: as §1

[7] = target: UniProt P76594; conditions: peptide sequence: YLVIQGIK; direction: stabilized; replicate design: treated separately
Experimental: as §1

[8] = target: UniProt P36879; conditions: peptide sequence: KTYPGGVQALR; direction: stabilized; replicate design: treated separately
Chain of UniProt P36879 (P36879 whole entry): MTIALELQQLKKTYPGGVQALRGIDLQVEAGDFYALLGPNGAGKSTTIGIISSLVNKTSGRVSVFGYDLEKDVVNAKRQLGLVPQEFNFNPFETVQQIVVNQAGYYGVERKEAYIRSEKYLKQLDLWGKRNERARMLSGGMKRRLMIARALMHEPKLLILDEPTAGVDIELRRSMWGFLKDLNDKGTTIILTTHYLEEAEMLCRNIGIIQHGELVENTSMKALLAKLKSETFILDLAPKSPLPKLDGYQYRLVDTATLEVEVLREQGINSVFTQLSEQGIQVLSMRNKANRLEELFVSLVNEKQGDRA
Experimental: as §1

[9] = target: UniProt P23538; conditions: peptide sequence: QVKIEDVPQEQR; direction: stabilized; replicate design: treated separately
Chain of UniProt P23538 (P23538 whole entry): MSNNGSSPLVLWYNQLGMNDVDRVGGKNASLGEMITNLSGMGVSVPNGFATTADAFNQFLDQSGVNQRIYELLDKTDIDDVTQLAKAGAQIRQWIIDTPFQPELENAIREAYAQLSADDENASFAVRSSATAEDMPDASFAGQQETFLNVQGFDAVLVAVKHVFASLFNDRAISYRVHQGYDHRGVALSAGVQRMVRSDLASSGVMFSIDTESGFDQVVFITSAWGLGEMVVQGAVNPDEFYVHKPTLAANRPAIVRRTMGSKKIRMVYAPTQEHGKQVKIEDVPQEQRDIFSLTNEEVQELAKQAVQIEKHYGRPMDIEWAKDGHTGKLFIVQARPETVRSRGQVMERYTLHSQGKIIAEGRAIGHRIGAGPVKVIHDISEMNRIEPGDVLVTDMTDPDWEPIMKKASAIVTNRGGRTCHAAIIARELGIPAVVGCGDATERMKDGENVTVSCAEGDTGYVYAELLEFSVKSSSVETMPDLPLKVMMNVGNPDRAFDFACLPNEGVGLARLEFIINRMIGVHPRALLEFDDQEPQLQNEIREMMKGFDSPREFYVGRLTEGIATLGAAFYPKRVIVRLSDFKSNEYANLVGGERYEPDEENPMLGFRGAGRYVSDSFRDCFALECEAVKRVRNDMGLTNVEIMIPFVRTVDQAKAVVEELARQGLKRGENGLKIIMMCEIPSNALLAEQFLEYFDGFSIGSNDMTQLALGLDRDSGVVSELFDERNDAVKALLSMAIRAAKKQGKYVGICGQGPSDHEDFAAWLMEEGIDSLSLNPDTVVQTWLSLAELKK
Experimental: as §1

[10] = target: UniProt P03007; conditions: peptide sequence: VTDSLAVAR; direction: stabilized; replicate design: treated separately
Experimental: as §1

[11] = target: UniProt P11868; conditions: peptide sequence: HIAGHAASLR; direction: stabilized; replicate design: treated separately
Chain of UniProt P11868 (P11868 whole entry): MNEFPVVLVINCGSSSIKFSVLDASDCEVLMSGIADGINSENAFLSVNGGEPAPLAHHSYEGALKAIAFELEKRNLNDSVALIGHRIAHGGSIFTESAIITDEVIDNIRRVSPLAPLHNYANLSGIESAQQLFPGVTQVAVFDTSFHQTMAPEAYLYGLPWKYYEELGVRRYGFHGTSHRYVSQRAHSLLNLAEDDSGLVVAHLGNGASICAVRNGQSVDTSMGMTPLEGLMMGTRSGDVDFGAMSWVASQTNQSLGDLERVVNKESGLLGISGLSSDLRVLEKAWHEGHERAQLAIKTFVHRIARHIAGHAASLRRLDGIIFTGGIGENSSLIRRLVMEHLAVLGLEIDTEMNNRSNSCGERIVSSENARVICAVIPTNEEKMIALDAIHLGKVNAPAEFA
Experimental: as §1

[12] = target: UniProt P07862; conditions: peptide sequence: AWTTLGCK; direction: stabilized; replicate design: treated separately
Experimental: as §1

[13] = target: UniProt P39359; conditions: peptide sequence: EVADFLINK; direction: stabilized; replicate design: treated separately
Experimental: as §1

[14] = target: UniProt P04993; conditions: peptide sequence: VAAAVALTR; direction: stabilized; replicate design: treated separately
Chain of UniProt P04993 (P04993 whole entry): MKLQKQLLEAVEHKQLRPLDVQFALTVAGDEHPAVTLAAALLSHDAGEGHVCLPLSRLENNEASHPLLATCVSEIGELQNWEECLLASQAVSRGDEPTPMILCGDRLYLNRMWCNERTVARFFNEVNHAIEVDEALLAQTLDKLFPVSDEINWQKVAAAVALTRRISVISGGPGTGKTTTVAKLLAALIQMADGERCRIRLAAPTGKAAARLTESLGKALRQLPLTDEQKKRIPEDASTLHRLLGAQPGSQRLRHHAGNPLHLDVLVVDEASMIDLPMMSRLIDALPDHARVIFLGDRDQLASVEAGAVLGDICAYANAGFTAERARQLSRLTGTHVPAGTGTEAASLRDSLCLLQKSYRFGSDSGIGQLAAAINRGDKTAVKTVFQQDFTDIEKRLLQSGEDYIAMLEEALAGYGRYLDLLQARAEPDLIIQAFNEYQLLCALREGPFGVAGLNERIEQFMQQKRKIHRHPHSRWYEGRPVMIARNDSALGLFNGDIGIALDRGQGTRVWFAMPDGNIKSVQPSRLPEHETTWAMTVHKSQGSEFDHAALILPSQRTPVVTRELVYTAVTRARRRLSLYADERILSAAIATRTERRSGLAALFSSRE
Experimental: as §1

[15] = target: UniProt P37744; conditions: peptide sequence: LSVAMMGR; direction: stabilized; replicate design: treated separately
Experimental: as §1

[16] = target: UniProt P40719; conditions: peptide sequence: RFTSDAAHELR; direction: stabilized; replicate design: treated separately
Experimental: as §1

[17] = target: UniProt P36566; conditions: peptide sequence: TLSPDYPR; direction: stabilized; replicate design: treated separately
Experimental: as §1

[18] = target: UniProt P31060; conditions: peptide sequence: QSQFSHITR; direction: stabilized; replicate design: treated separately
Chain of UniProt P31060 (P31060 whole entry): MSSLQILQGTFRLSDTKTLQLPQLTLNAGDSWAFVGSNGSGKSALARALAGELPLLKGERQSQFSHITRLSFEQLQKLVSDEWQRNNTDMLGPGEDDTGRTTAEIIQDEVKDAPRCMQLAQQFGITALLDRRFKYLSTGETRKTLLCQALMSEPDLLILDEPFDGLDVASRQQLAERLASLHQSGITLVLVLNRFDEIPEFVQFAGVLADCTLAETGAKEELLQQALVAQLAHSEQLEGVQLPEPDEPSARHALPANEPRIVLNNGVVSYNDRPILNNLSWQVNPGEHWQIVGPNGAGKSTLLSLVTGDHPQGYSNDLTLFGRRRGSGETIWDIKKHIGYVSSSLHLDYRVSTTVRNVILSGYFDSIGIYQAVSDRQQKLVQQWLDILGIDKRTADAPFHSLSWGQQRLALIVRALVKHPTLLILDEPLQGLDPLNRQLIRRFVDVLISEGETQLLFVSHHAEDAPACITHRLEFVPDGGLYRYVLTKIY
Experimental: as §1

[19] = target: UniProt P0A9B6; conditions: peptide sequence: SLQSLPWR; direction: stabilized; replicate design: treated separately
Experimental: as §1

[20] = target: UniProt P76256; conditions: peptide sequence: GPGSFTGVR; direction: stabilized; replicate design: treated separately
Chain of UniProt P76256 (P76256 whole entry): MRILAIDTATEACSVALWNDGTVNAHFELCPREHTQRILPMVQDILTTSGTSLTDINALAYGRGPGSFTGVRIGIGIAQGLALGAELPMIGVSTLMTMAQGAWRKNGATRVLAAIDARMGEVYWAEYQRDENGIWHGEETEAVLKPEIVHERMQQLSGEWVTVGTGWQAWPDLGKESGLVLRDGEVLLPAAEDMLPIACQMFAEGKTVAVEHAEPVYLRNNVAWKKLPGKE
Experimental: as §1

[21] = target: UniProt P04425; conditions: peptide sequence: GTLIVNKPQSLR; direction: stabilized; replicate design: treated separately
Chain of UniProt P04425 (P04425 whole entry): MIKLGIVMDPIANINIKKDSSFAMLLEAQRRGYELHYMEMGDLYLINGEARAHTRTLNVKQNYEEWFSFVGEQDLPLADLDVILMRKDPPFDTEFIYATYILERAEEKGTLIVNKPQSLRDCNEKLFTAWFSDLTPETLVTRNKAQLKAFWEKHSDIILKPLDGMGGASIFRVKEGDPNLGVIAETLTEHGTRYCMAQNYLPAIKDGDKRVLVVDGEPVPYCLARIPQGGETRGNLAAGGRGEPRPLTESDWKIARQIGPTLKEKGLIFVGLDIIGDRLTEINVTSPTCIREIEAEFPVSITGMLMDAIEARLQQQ
Experimental: as §1

[22] = target: UniProt P07109; conditions: peptide sequence: HVSTHVIFLHQGK; direction: stabilized; replicate design: treated separately
Chain of UniProt P07109 (P07109 whole entry): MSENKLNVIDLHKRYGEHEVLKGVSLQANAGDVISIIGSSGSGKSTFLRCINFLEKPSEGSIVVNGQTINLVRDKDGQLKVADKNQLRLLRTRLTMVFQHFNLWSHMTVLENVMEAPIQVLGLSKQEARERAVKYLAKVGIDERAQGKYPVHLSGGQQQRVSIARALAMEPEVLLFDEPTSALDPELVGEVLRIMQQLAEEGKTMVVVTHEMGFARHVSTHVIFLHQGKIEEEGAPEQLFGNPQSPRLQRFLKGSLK
Experimental: as §1

[23] = target: UniProt P25536; conditions: peptide sequence: IVTGIEEQR; direction: stabilized; replicate design: treated separately
Experimental: as §1

[24] = target: UniProt P0AEC3; conditions: peptide sequence: DSHGGKPATGTGIGLAVSR; direction: stabilized; replicate design: treated separately
Experimental: as §1

[25] = target: UniProt P0ACW4; conditions: peptide sequence: GGISHCTAGGKFVCNDGSISASK; direction: stabilized; replicate design: treated separately
Experimental: as §1

[26] = target: UniProt P31808; conditions: peptide sequence: TGMTFDAQPGR; direction: stabilized; replicate design: treated separately
Chain of UniProt P31808 (P31808 whole entry): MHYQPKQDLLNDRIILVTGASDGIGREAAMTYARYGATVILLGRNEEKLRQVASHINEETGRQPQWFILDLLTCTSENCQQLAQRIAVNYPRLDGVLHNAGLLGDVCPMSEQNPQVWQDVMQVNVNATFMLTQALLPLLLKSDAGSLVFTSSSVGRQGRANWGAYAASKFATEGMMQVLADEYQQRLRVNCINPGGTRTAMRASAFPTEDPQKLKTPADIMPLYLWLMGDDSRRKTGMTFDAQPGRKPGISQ
Experimental: as §1

[27] = target: UniProt P22106; conditions: peptide sequence: QALEDSVK; direction: stabilized; replicate design: treated separately
Experimental: as §1

[28] = target: UniProt P25539; conditions: peptide sequence: HVGPDVCLHLVGA; direction: stabilized; replicate design: treated separately
Chain of UniProt P25539 (P25539 whole entry): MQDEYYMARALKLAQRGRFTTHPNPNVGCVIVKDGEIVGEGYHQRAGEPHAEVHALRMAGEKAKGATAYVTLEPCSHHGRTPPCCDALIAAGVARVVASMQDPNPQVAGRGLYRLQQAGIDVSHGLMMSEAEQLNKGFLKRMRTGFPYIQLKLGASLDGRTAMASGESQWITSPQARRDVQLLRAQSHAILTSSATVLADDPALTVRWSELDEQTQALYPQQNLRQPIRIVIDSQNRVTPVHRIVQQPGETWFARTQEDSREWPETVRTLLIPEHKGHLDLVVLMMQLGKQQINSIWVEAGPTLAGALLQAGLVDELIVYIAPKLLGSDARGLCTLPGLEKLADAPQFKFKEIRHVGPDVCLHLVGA
Experimental: as §1

[29] = target: UniProt P76192; conditions: peptide sequence: VLPAEEYAEIR; direction: stabilized; replicate design: treated separately
Experimental: as §1

[30] = target: UniProt P46889; conditions: peptide sequence: DIAGEPVVADLAK; direction: stabilized; replicate design: treated separately
Experimental: as §1

[31] = target: UniProt P0AES0; conditions: peptide sequence: GDESLVIKK; direction: stabilized; replicate design: treated separately
Chain of UniProt P0AES0 (P0AES0 whole entry): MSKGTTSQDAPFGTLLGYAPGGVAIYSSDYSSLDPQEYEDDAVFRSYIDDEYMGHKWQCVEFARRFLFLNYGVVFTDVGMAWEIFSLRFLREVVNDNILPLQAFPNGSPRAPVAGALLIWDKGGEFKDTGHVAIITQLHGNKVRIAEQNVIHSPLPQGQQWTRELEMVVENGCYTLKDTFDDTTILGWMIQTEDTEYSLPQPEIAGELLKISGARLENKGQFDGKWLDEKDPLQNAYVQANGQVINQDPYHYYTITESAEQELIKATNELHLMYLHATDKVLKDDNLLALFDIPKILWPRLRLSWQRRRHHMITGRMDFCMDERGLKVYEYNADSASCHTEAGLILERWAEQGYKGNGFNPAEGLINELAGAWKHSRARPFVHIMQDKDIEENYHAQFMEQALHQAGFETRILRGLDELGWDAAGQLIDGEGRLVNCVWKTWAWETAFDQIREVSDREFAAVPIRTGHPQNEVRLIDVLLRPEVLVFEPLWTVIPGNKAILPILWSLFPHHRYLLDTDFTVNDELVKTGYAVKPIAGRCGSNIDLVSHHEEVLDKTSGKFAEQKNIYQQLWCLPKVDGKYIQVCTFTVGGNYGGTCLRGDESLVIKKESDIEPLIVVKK
Experimental: as §1

Nc1ncnc2c1ncn2[C@@H]1O[C@H](COP(=O)(O)OP(=O)(O)OP(=O)(O)O)[C@@H](O)[C@H]1O [adenosine 5'-triphosphate]
Conditions	pEC50 of peptide local stability change
[1]	3.76
[2]	2.46
[3]	3.09
[4]	3.12
[5]	2.7
[6]	4.43
[7]	2.33
[8]	3.73
[9]	4.42
[10]	2.27
[11]	3.41
[12]	3.66
[13]	3.49
[14]	2.84
[15]	3.22
[16]	3.59
[17]	2.46
[18]	2.89
[19]	2.62
[20]	3.97
[21]	3.85
[22]	3.88
[23]	3.52
[24]	2.99
[25]	2.19
[26]	2.09
[27]	2.42
[28]	2.74
[29]	3.75
[30]	2.99
[31]	3.95
